Consider eleven molecules from ChEMBL document CHEMBL1201862, “PubChem BioAssay data set” (2004).

Common to all, as to assay: NCI anticancer screen, dose series, 48 h
Assay [1] concerns HOP-62.
Assay [2] has as its system HOP-92.
Assay [3] concerns Malme-3M.
Assay [4] has as its system NCI-H460.
Assay [5] concerns RPMI-8226.
The test system of assay [6] is SN12C.
For assay [7], the system named is SNB-75.
Assay [8] deals with A498.
Assay [9] relates to OVCAR-5.
Assay [10] relates to UACC-257.
Assay [11] relates to COLO 205.
Assay [12] relates to SK-MEL-28.
Assay [13] deals with MOLT-4.
The test system of assay [14] is HT-29.
For assay [15], the system named is M14.
In assay [16] the test system is CCRF-CEM.
Assay [17] deals with SF-539.
For assay [18], the system named is UACC-62.

SMILES strings stand for the structures.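 Five concentrations, 48 hours, 96-well plates. GI50 is the concentration that inhibits growth by half.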 The source made the active and inactive calls. No stated cut-off is given here; in the data, active = GI50 up to about 1.1 µM and inactive = higher.

In the case of `CC1=C(C(=O)Nc2cccc(C(F)(F)F)c2)C(c2ccc(O)cc2)C(C(=O)Nc2cccc(C(F)(F)F)c2)=C(C)N1`, the GI50 in assay [1] was 19.5 µM (inactive); in assay [2], 11.5 µM (inactive); in [3], 25.8 µM (inactive); in assay [4], 16.7 µM (inactive); in assay [5], 7.35 µM (inactive); in [6], > 10 µM (inactive). The GI50 was 17.2 µM (inactive) in assay [7]; 17.5 µM (inactive) in assay [8]; 24.9 µM (inactive) in assay [9]; 17.7 µM (inactive) in assay [10]; 13.9 µM (inactive) in [11]; 18.7 µM (inactive) in assay [12]. Besides, the GI50 in assay [13] is 7.98 µM (inactive); in assay [14], 16 µM (inactive); in [15], 14.9 µM (inactive); in [16], 13.6 µM (inactive); in [17], 26.5 µM (inactive).
In the case of `Cc1ccccc1-c1c(N)nc(NC#N)nc1C(=O)Nc1ccccc1`, the GI50 in [1] was > 100 µM (inactive); in assay [2], 42.9 µM (inactive); in assay [3], > 100 µM (inactive); in assay [4], > 100 µM (inactive); in [18], > 100 µM (inactive); in assay [5], > 100 µM (inactive). In addition, the GI50 was 99.8 µM (inactive) in [6]; 76.4 µM (inactive) in assay [7]; > 100 µM (inactive) in assay [8]; > 100 µM (inactive) in assay [9]; > 100 µM (inactive) in assay [10]; > 100 µM (inactive) in assay [11]. The GI50 in assay [12], in [13], in [14], in assay [15], in assay [16] and in [17] was > 100 µM (inactive) each time.
Take `CCN(CC)CCNc1ccc(C)c2sc3ccc(O)cc3c(=O)c12`: the GI50 is 0.274 µM (active) in [1]; 1.87 µM (inactive) in assay [2]; 1.15 µM (inactive) in assay [3]; < 0.0128 µM (active) in [4]; 0.986 µM (active) in assay [18]; 1.05 µM (active) in assay [5]. The GI50 in assay [6] is 0.594 µM (active); in assay [7], 1.05 µM (active); in assay [8], 1.33 µM (inactive); in assay [9], 4.1 µM (inactive); in assay [10], 1.55 µM (inactive); in assay [11], 1.62 µM (inactive). Further, the GI50 in assay [12] was 1.49 µM (inactive); in assay [13], < 0.012 µM (active); in assay [14] it was 1.58 µM (inactive); in [15] it was 1.19 µM (inactive); in [16] it was 0.0991 µM (active); in assay [17] it was 1.15 µM (inactive).
Regarding `NC(CCCC(N)P(=O)(O)c1ccccc1)P(=O)(O)c1ccccc1` (stereo not given), the GI50 in assay [1], in assay [2], in [3], in [4], in assay [18] and in assay [5] was > 261 µM (inactive) each time. In addition, the GI50 in assay [6], in assay [7], in assay [8], in assay [10], in assay [11] and in assay [12] was > 261 µM (inactive) throughout. In addition, the GI50 in [13], in [14], in [15], in assay [16] and in [17] was > 261 µM (inactive) in each case.
For `Cc1cccc(NC(=O)C(=O)C2C(=O)NC(=O)NC2=O)c1C`, the GI50 in assay [1], in [2], in assay [3], in assay [4], in assay [18] and in assay [5] was > 100 µM (inactive) in each case. Moreover, the GI50 in assay [6], in assay [7], in assay [8], in assay [9], in assay [10] and in assay [11] was > 100 µM (inactive) throughout. The GI50 in [12], in assay [13], in assay [14], in assay [15], in assay [16] and in assay [17] was > 100 µM (inactive) throughout.
For the molecule `O=C1NC(=O)C(C(=O)C(=O)Nc2cc(Cl)ccc2Cl)C(=O)N1`, the GI50 in assay [1] was > 100 µM (inactive); in assay [2], 91.8 µM (inactive); in assay [3], > 100 µM (inactive); in assay [4], > 100 µM (inactive); in assay [18], > 100 µM (inactive); in assay [5] it was > 100 µM (inactive). Besides, the GI50 in assay [7] was 83.2 µM (inactive); in assay [8], > 100 µM (inactive); in [9] it was > 100 µM (inactive); in assay [10], > 100 µM (inactive); in assay [11] it was > 100 µM (inactive); in assay [12], > 100 µM (inactive). Also, the GI50 in [13], in assay [15], in [16] and in [17] was > 100 µM (inactive) throughout.
Turning to `CC(=O)Nc1ccc(C2C(C(=O)Nc3ccccc3C)=C(C)NC(C)=C2C(=O)Nc2ccccc2C)cc1`, the GI50 in [1] is > 100 µM (inactive); in [2], > 100 µM (inactive); in assay [3] it was > 100 µM (inactive); in assay [4] it was > 100 µM (inactive); in assay [18] it was > 92.3 µM (inactive); in assay [5], > 100 µM (inactive). Moreover, the GI50 was > 100 µM (inactive) in assay [6]; > 61.2 µM (inactive) in assay [7]; > 100 µM (inactive) in assay [8]; > 100 µM (inactive) in assay [9]; 96.6 µM (inactive) in assay [10]; > 100 µM (inactive) in assay [11]. For the same molecule, the GI50 in assay [12], in assay [14], in assay [15], in assay [16] and in assay [17] was > 100 µM (inactive) in each case.
For `CCOC(=O)CCC(NC(=O)c1ccc(NCc2ccc3nc(-c4ccccc4)c(Cl)nc3c2)cc1)C(=O)OCC` (stereo not given), the GI50 in assay [1] was > 100 µM (inactive); in assay [2] it was 9.95 µM (inactive); in [3], 13 µM (inactive); in [4], 27.7 µM (inactive); in assay [5], 18.2 µM (inactive); in assay [6], 41.1 µM (inactive). The GI50 is 16.9 µM (inactive) in assay [7]; 24.5 µM (inactive) in assay [8]; > 100 µM (inactive) in assay [9]; 20.5 µM (inactive) in assay [11]; > 10 µM (inactive) in assay [12]; 9.25 µM (inactive) in [13]. Besides, the GI50 in [14] was > 100 µM (inactive); in [15], 16.4 µM (inactive); in [16], 25.6 µM (inactive); in assay [17], 35.8 µM (inactive).
Consider `CCC1(CN(C)C)CC/C(=C\c2ccc3c(c2)OCO3)C1=O` (stereo not given), for which the GI50 was > 100 µM (inactive) in assay [1]; > 100 µM (inactive) in assay [2]; > 100 µM (inactive) in [3]; > 100 µM (inactive) in [18]; 40.7 µM (inactive) in assay [5]; > 100 µM (inactive) in assay [6]. In addition, the GI50 in [7], in assay [8], in assay [9], in [10], in assay [11] and in assay [12] was > 100 µM (inactive) throughout. For the same molecule, the GI50 in assay [13] is > 100 µM (inactive); in assay [14] it was 65.2 µM (inactive); in assay [15], > 100 µM (inactive); in [16] it was 48.6 µM (inactive); in assay [17] it was > 100 µM (inactive).
In the case of `COC(=O)C1C(=O)O[C@@H](c2ccc(OC)cc2OC)C1C(=O)OC` (stereo not given in full), the GI50 in assay [1], in assay [2], in [3], in [4], in assay [18] and in assay [5] was > 100 µM (inactive) in each case. For the same molecule, the GI50 in [6], in [7], in [8], in assay [9], in [10] and in assay [11] was > 100 µM (inactive) each time. The GI50 in assay [12], in [13], in assay [14], in assay [15], in [16] and in assay [17] was > 100 µM (inactive) throughout.
Take `CC1C=C[C@H](Sc2ccccc2)CC[C@@]1(C)O` (stereo not given in full): the GI50 in [1] was > 100 µM (inactive); in [2], 40.5 µM (inactive); in [3], > 100 µM (inactive); in assay [4], > 100 µM (inactive); in assay [18] it was 86.1 µM (inactive); in [5], 57.3 µM (inactive). In addition, the GI50 in [6] is > 100 µM (inactive); in assay [7], 97.1 µM (inactive); in assay [8], > 100 µM (inactive); in assay [9] it was > 100 µM (inactive); in [10] it was > 100 µM (inactive); in assay [11], > 100 µM (inactive). In addition, the GI50 in assay [12] was > 100 µM (inactive); in assay [13], 35.1 µM (inactive); in [14], > 100 µM (inactive); in [15], > 100 µM (inactive); in assay [16] it was 34.7 µM (inactive); in [17], > 100 µM (inactive).
